Measurements: ChEMBL document CHEMBL4368891, “Conformationally restricted quinazolone derivatives as PI3Kδ-selective inhibitors: the design, synthesis and biological evaluation” (Medchemcomm, 2019)
Calls of active or inactive are those of the source. No cut-off for these calls is given here.

How the values were obtained:
[1] = human, microsomes
Description: Intrinsic clearance in liver by measuring in intrinsic clearance in human liver microsomes in presence of NADPH by LC-MS/MS analysis

[2] = rat, microsomes
Description: Intrinsic clearance in liver by measuring in intrinsic clearance in rat liver microsomes in presence of NADPH by LC-MS/MS analysis

[3] = biological target: T1, Phosphatidylinositol 4,5-bisphosphate 3-kinase catalytic subunit delta isoform (Homo sapiens, UniProt O00329); assay: Inhibition of PI3Kdelta (unknown origin) using PIP2 as substrate after 2 hrs by ADP-Glo assay
T1 sequence (O00329 whole entry): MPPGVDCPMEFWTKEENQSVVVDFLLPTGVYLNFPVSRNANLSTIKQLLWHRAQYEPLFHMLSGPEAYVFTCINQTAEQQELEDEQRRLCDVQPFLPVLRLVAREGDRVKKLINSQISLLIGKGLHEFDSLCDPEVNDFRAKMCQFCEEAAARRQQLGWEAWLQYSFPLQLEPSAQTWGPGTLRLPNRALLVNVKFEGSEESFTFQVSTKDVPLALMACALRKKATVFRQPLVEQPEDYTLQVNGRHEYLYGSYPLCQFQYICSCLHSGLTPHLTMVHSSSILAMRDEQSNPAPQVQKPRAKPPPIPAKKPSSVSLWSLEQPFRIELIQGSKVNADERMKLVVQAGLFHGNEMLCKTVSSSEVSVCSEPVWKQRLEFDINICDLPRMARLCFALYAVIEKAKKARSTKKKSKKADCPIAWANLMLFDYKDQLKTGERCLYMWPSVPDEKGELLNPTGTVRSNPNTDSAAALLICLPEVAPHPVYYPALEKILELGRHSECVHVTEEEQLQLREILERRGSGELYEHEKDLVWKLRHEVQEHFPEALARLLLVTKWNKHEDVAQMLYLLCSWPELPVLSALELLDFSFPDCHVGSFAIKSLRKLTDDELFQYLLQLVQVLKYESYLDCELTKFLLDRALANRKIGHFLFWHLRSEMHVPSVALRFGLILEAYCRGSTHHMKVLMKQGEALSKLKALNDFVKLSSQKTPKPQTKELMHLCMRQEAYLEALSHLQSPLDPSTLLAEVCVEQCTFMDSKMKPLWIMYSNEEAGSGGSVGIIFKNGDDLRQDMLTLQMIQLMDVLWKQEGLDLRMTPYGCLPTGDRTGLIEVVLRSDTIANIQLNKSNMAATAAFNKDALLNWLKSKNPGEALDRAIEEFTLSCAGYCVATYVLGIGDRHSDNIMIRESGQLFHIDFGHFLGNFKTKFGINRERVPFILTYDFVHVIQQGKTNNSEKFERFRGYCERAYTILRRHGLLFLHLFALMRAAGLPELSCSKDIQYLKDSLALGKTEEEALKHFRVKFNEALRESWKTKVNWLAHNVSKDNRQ

SU-DHL-6 = assay: Antiproliferative activity against human SU-DHL6 cells after 72 hrs by CellTiter-Glo luminescent cell viability assay; type: functional; conditions: SU-DHL-6, 72 h
[4] = biological target: Phosphatidylinositol 4,5-bisphosphate 3-kinase catalytic subunit alpha isoform (Homo sapiens, UniProt P42336); assay: Inhibition of PI3Kalpha (unknown origin) using PIP2 as substrate after 2 hrs by ADP-Glo assay
[5] = biological target: Phosphatidylinositol 4,5-bisphosphate 3-kinase catalytic subunit beta isoform (Homo sapiens, UniProt P42338); assay: Inhibition of PI3Kbeta (unknown origin) using PIP2 as substrate after 2 hrs by ADP-Glo assay
[6] = biological target: Phosphatidylinositol 4,5-bisphosphate 3-kinase catalytic subunit gamma isoform (Homo sapiens, UniProt P48736); assay: Inhibition of PI3Kgamma (unknown origin) using PIP2 as substrate after 2 hrs by ADP-Glo assay
in vitro [7] = conditions: human, liver microsomes
Description: Half life in human liver microsomes in presence of NADPH by LC-MS/MS analysis

in vitro [8] = conditions: human, liver microsomes; remark: listed apart in the source
Description: Intrinsic clearance in human liver microsomes assessed per mg protein in presence of NADPH by LC-MS/MS analysis

in vitro [9] = conditions: human, liver microsomes; remark: listed apart in the source
Description: Metabolic stability in human liver microsomes assessed as compound remaining after 60 mins in presence of NADPH by LC-MS/MS analysis

in vitro [10] = conditions: rat, liver microsomes
Description: Half life in rat liver microsomes in presence of NADPH by LC-MS/MS analysis

in vitro [11] = conditions: rat, liver microsomes; remark: listed apart in the source
Description: Intrinsic clearance in rat liver microsomes assessed per mg protein in presence of NADPH by LC-MS/MS analysis

in vitro [12] = conditions: rat, liver microsomes; remark: listed apart in the source
Description: Metabolic stability in rat liver microsomes assessed as compound remaining after 60 mins in presence of NADPH by LC-MS/MS analysis

[13] = Half life in Sprague-Dawley rat at 10 mg/kg, po administered via gavage by LC-MS/MS analysis; type: ADME, organism-based; conditions: in vivo
[14] = biological target: T2, Phosphatidylinositol 4,5-bisphosphate 3-kinase catalytic subunit delta isoform (Homo sapiens) (UniProt O00329); assay: Inhibition of PI3Kdelta in human SU-DHL6 cells assessed as reduction in Akt phosphorylation at S473 residue after 2 hrs by Western blot analysis; type: cell-based
T2 sequence (whole entry): T1 sequence (O00329 whole entry)

[15] = biological target: T2, Phosphatidylinositol 4,5-bisphosphate 3-kinase catalytic subunit delta isoform (Homo sapiens); assay: Inhibition of PI3Kdelta in human SU-DHL6 cells assessed as reduction in S6K1 phosphorylation at T389 residue after 2 hrs by Western blot analysis; type: cell-based
[16] = biological target: T2, Phosphatidylinositol 4,5-bisphosphate 3-kinase catalytic subunit delta isoform (Homo sapiens); assay: Inhibition of PI3Kdelta in human SU-DHL6 cells assessed as reduction in Akt phosphorylation at S473 residue at 100 nM after 2 hrs by Western blot analysis; type: cell-based
[17] = biological target: T2, Phosphatidylinositol 4,5-bisphosphate 3-kinase catalytic subunit delta isoform (Homo sapiens); assay: Inhibition of PI3Kdelta in human SU-DHL6 cells assessed as reduction in S6K1 phosphorylation at T389 residue a at 100 nM after 2 hrs by Western blot analysis; type: cell-based
[18] = AUC (0 to last) in Sprague-Dawley rat at 10 mg/kg, po administered via gavage by LC-MS/MS analysis; type: ADME, organism-based; parameters: dose 10 mg/kg, time 0 - last, route oral; conditions: in vivo

Chain of Phosphatidylinositol 4,5-bisphosphate 3-kinase catalytic subunit alpha isoform (P42336 whole entry, canonical isoform): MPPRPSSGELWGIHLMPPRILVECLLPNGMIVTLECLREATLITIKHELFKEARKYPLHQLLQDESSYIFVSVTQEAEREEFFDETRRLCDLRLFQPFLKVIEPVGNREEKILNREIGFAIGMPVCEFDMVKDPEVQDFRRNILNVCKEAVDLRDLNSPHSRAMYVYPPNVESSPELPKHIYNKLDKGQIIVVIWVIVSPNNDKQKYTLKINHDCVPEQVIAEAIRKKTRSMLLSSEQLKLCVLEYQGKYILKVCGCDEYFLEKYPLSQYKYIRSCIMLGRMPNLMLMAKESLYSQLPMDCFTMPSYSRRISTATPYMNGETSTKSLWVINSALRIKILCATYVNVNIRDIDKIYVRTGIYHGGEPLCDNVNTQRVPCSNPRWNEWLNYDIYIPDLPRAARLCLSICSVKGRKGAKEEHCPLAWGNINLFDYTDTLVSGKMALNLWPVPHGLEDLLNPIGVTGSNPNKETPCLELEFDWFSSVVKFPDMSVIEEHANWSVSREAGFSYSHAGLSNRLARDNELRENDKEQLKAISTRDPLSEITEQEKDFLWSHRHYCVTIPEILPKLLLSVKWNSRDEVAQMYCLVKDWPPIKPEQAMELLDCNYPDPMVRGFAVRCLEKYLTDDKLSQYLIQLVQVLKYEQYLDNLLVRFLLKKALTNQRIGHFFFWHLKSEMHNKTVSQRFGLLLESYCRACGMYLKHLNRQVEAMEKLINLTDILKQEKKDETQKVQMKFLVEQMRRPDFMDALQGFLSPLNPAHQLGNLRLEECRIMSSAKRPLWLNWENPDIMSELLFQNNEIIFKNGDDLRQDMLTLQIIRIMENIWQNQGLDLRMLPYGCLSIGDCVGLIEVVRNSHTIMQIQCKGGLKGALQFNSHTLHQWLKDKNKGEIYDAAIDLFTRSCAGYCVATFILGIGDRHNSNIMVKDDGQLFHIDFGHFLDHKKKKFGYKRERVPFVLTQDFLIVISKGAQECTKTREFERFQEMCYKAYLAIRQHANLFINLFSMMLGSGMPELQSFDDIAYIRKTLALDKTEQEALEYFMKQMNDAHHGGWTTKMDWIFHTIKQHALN
Chain of Phosphatidylinositol 4,5-bisphosphate 3-kinase catalytic subunit beta isoform (P42338 whole entry, canonical isoform): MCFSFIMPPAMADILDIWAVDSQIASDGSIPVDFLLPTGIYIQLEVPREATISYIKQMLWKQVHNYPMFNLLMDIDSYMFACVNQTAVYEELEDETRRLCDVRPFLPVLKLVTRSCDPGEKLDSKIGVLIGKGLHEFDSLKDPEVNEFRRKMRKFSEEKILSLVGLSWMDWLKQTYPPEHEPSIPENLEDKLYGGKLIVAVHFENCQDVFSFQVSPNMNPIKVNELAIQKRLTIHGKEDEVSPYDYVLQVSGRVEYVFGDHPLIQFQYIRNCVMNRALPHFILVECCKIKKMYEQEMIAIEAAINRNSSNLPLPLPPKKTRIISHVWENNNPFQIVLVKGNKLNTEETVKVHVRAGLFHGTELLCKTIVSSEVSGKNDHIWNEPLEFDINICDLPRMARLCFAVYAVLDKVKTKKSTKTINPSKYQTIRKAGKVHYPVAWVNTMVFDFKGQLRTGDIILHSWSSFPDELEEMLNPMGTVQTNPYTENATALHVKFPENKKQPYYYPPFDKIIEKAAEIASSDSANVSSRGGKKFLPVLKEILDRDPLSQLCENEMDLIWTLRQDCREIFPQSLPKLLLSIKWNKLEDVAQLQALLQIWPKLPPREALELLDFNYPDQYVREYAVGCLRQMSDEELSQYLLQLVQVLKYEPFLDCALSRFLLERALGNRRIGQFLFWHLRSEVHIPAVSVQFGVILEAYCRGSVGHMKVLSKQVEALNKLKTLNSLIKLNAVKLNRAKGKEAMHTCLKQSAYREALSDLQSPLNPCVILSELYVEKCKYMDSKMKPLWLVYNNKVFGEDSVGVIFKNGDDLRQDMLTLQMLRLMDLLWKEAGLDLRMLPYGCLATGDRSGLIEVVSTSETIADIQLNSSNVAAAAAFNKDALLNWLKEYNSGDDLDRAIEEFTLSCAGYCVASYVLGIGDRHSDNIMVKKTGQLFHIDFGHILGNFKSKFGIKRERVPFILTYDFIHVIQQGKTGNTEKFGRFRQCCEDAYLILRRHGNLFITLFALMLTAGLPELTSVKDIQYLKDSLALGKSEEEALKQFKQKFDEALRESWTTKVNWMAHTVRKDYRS
Chain of Phosphatidylinositol 4,5-bisphosphate 3-kinase catalytic subunit gamma isoform (P48736 whole entry, canonical isoform): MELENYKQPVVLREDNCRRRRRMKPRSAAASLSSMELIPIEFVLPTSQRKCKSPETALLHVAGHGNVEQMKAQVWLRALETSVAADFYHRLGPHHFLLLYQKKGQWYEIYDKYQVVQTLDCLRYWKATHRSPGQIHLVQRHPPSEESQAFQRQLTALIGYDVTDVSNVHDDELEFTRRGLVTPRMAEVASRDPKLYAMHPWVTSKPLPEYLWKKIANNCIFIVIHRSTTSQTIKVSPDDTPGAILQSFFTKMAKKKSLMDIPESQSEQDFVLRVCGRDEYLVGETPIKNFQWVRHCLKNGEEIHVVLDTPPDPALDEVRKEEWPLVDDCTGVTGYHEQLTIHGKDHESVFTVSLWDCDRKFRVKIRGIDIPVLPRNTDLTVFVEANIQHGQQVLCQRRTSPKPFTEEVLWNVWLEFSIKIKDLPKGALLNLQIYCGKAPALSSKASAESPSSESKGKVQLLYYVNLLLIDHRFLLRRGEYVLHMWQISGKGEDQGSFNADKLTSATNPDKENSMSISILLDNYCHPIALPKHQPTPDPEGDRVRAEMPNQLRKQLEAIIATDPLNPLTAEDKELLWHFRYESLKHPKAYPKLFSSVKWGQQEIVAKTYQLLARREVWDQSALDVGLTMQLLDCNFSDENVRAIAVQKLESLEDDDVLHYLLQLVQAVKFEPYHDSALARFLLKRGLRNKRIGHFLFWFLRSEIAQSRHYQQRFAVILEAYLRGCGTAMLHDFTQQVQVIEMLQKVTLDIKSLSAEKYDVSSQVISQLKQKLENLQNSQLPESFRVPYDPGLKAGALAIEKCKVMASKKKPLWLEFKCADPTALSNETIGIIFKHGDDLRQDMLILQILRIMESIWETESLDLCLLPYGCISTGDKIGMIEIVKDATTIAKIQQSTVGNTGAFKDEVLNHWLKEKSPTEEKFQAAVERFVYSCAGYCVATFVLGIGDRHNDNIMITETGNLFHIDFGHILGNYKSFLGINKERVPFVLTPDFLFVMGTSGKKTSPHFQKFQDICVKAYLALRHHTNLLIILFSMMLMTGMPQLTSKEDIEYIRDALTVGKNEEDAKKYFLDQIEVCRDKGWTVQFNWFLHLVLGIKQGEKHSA

C[C@]12CC[C@H]3[C@@H](CCC4=CC(=O)CC[C@@]43C)[C@@H]1CC[C@@H]2O [TESTOSTERONE]
CLH [1]: 0.0911 mL/min/kg | CLH [2]: 3.7756 mL/min/kg

O=c1c2c(F)cccc2nc([C@@H]2CCCN2c2ncnc3[nH]cnc23)n1C1CCC1
IC50 [3]: 635 nM | GI50 (SU-DHL-6): 630 nM

CC[C@H](Nc1ncnc2[nH]cnc12)c1nc2cccc(F)c2c(=O)n1-c1ccccc1 [IDELALISIB]
GI50 (SU-DHL-6): 20 nM

O=c1c2ccccc2nc([C@@H]2CCCN2c2ncnc3[nH]cnc23)n1Cc1ccccc1
IC50 [3]: 498 nM | GI50 (SU-DHL-6): 580 nM

O=c1c2c(F)cccc2nc([C@@H]2CCCN2c2ncnc3[nH]cnc23)n1C1CCCCC1
IC50 [3]: 33 nM | GI50 (SU-DHL-6): 510 nM

CCCCn1c([C@@H]2CCCN2c2ncnc3[nH]cnc23)nc2cccc(F)c2c1=O
IC50 [3]: 42 nM | GI50 (SU-DHL-6): 640 nM

O=c1c2c(F)cccc2nc([C@@H]2CCCN2c2ncnc3[nH]cnc23)n1Cc1ccccc1
IC50 [3]: 58 nM | GI50 (SU-DHL-6): 480 nM

O=c1c2c(F)cccc2nc([C@@H]2CCCN2c2ncnc3[nH]cnc23)n1C1CCCC1
IC50 [3]: 38 nM | GI50 (SU-DHL-6): 2650 nM

N#Cc1c(N)ncnc1N1CCC[C@H]1c1nc2cccc(F)c2c(=O)n1Cc1ccccc1
IC50 [3]: 22 nM | GI50 (SU-DHL-6): 330 nM | IC50 [4]: 4940 nM | IC50 [5]: 6240 nM | IC50 [6]: 587 nM | CLH [1]: 0.0401 mL/min/kg | CLH [2]: 1.5571 mL/min/kg | half-life (in vitro [7]): 31.1 min | microsomal CLint (in vitro [8]): 44.6 µL/min/mg | remaining at 1 h (in vitro [9]): 25.5% | half-life (in vitro [10]): 1.6 min | microsomal CLint (in vitro [11]): 865 µL/min/mg | remaining at 1 h (in vitro [12]): 0.1%

O=C(O)Cc1ccccc1Nc1c(Cl)cccc1Cl [DICLOFENAC]
CLH [2]: 0.143 mL/min/kg

N#Cc1c(N)ncnc1N1CCC[C@H]1c1nc2cccc(F)c2c(=O)n1C1CCCC1
half-life [13]: 246 min | IC50 [3]: 6.3 nM | GI50 (SU-DHL-6): 210 nM | IC50 [4]: 8590 nM | IC50 [5]: 1550 nM | IC50 [6]: 354 nM | inhibition [14]: Dose-dependent effect | inhibition [15]: Dose-dependent effect | inhibition [16]: Active | inhibition [17]: Active | AUC(0-t) [18]: 50.8 ng·h/mL | CLH [1]: 0.0713 mL/min/kg | CLH [2]: 0.1651 mL/min/kg | half-life (in vitro [7]): 17.5 min | microsomal CLint (in vitro [8]): 79.2 µL/min/mg | remaining at 1 h (in vitro [9]): 9.1% | half-life (in vitro [10]): 15.1 min | microsomal CLint (in vitro [11]): 91.7 µL/min/mg | remaining at 1 h (in vitro [12]): 6.2%

O=c1c2c(F)cccc2nc([C@@H]2CCCN2c2nc(F)nc3[nH]cnc23)n1C1CCCC1
IC50 [3]: 178 nM | GI50 (SU-DHL-6): 1890 nM

O=c1c2c(F)cccc2nc([C@@H]2CCCN2c2nc(F)nc3[nH]cnc23)n1Cc1ccccc1
IC50 [3]: 91 nM | GI50 (SU-DHL-6): 380 nM
